Some test systems named below: CAKI-1 renal; HCT-116 colon; HOP-62 NSCLC; HS 578T breast; LOX IMVI melanoma; NCI/ADR-RES ovarian; OVCAR-5 ovarian; SF-268 CNS; SK-OV-3 ovarian; U251 CNS.
What all share (assay): NCI-60 cell line screen, 48 h

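Growth conditions: 96-well plates. Treatment: test compound, 48 hours, 5 concentrations. Analysis: linear interpolation between bracketing concentrations; unreached endpoints set to highest concentration. GI50 marks 50% less growth. TGI is the concentration that stops growth completely.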

Take `CCOc1ccc(C(C[N+](=O)[O-])Sc2ccccc2N)cc1` (stereo not drawn): the GI50 with CAKI-1 renal was 12.9 µM; in the assay with HCT-116 colon, 1.7 µM; in the assay on HOP-62 NSCLC it was 18.3 µM; in the assay on HS 578T breast it was 3.1 µM; in the assay on LOX IMVI melanoma it was 1.44 µM; in the assay with NCI/ADR-RES ovarian, 14.3 µM. Also, the GI50 in the assay with OVCAR-5 ovarian is 11.2 µM; with SF-268 CNS it was 4.76 µM; in the assay with SK-OV-3 ovarian it was 14.2 µM; in the assay with U251 CNS, 2.96 µM. The TGI with CAKI-1 renal worked out at 25.6 µM; in the assay on HCT-116 colon it was 3.36 µM; in the assay on HOP-62 NSCLC, 32.3 µM; in the assay with HS 578T breast, 18.3 µM; with LOX IMVI melanoma, 2.92 µM; in the assay with NCI/ADR-RES ovarian, 28.1 µM. Moreover, the TGI in the assay on OVCAR-5 ovarian amounted to 23.2 µM; in the assay on SF-268 CNS, 18.3 µM; in the assay on SK-OV-3 ovarian, 27.2 µM; in the assay on U251 CNS, 10.6 µM.

With `O=C(Nc1cc(Cl)ccc1O)c1ccccc1Nc1ccnc(C(F)(F)F)c1`, the GI50 was 2.24 µM in the assay with CAKI-1 renal; 2.2 µM in the assay with HCT-116 colon; 2.16 µM with HOP-62 NSCLC; 2.42 µM with HS 578T breast; 3.2 µM in the assay on LOX IMVI melanoma; 3.06 µM in the assay with NCI/ADR-RES ovarian. The GI50 is 5.6 µM with OVCAR-5 ovarian, 3.13 µM in the assay with SF-268 CNS, 2.21 µM in the assay on SK-OV-3 ovarian and 4.91 µM in the assay on U251 CNS. Moreover, the TGI in the assay with CAKI-1 renal came out at 7.34 µM; in the assay on HCT-116 colon it was 5.63 µM; with HOP-62 NSCLC, 5.21 µM; with HS 578T breast it was 8.54 µM; in the assay on LOX IMVI melanoma, 22.7 µM; in the assay with NCI/ADR-RES ovarian, 9.29 µM. The TGI in the assay on OVCAR-5 ovarian is 23.3 µM; in the assay with SF-268 CNS, 13.2 µM; with SK-OV-3 ovarian it was 6.23 µM; in the assay on U251 CNS, > 100 µM.

As for `O=C1Cc2cc(CCn3cncn3)c(Cl)cc2N1`, the GI50 is 8.33 µM in the assay with CAKI-1 renal; 32 µM with HCT-116 colon; 29.9 µM with HOP-62 NSCLC; 0.72 µM with HS 578T breast; > 100 µM with LOX IMVI melanoma; 5.85 µM in the assay with NCI/ADR-RES ovarian. The GI50 was > 100 µM in the assay with OVCAR-5 ovarian, 59.6 µM with SF-268 CNS, 36.5 µM in the assay with SK-OV-3 ovarian and 14.5 µM with U251 CNS. In addition, the TGI in the assay on CAKI-1 renal, in the assay with HCT-116 colon, with HOP-62 NSCLC, in the assay on HS 578T breast, with LOX IMVI melanoma and in the assay with NCI/ADR-RES ovarian was > 100 µM each time. Moreover, the TGI in the assay with OVCAR-5 ovarian, in the assay with SF-268 CNS, in the assay on SK-OV-3 ovarian and in the assay on U251 CNS was > 100 µM in each case.

With `O=C(Nc1ccccc1)OC1OC(COC(=O)c2ccccc2)C(OC(=O)c2ccccc2)C1OS(=O)(=O)c1ccc([N+](=O)[O-])cc1` (stereo not drawn), the TGI in the assay with CAKI-1 renal, with HCT-116 colon, in the assay on HOP-62 NSCLC, in the assay with HS 578T breast, in the assay with LOX IMVI melanoma and in the assay with NCI/ADR-RES ovarian was > 100 µM throughout. Also, the TGI in the assay on OVCAR-5 ovarian, in the assay on SF-268 CNS, with SK-OV-3 ovarian and in the assay with U251 CNS was > 100 µM throughout.

Take `C#C[C@@]1(O)[C@@H](CO)O[C@@H](n2cc(C(F)(F)F)c3c(N)ncnc32)[C@@H]1O`: the GI50 in the assay with CAKI-1 renal is 2.19 µM; in the assay on HCT-116 colon, 0.363 µM; with HOP-62 NSCLC it was 1.75 µM; in the assay on HS 578T breast it was 1.26 µM; in the assay on LOX IMVI melanoma, 0.288 µM; in the assay with NCI/ADR-RES ovarian it was 0.487 µM. Besides, the GI50 with OVCAR-5 ovarian was 1.59 µM; in the assay on SF-268 CNS it was 1.55 µM; in the assay on SK-OV-3 ovarian, 0.214 µM; in the assay on U251 CNS, 0.409 µM. For the same molecule, the TGI was > 100 µM in the assay on CAKI-1 renal; > 100 µM with HCT-116 colon; > 100 µM in the assay on HOP-62 NSCLC; 6.23 µM in the assay on HS 578T breast; 2.98 µM in the assay with LOX IMVI melanoma; > 24.7 µM with NCI/ADR-RES ovarian. The TGI was 7.06 µM in the assay with OVCAR-5 ovarian, > 22.9 µM with SF-268 CNS and > 100 µM in the assay with SK-OV-3 ovarian.

For the molecule `COc1cc([N+](=O)[O-])c(S(=O)(=O)O)cc1-n1nc(C(=O)Nc2ccccc2)n[n+]1-c1cc(S(=O)(=O)[O-])c([N+](=O)[O-])cc1OC`, the TGI with CAKI-1 renal, with HCT-116 colon, in the assay with HOP-62 NSCLC, in the assay on HS 578T breast, in the assay on LOX IMVI melanoma and with NCI/ADR-RES ovarian was > 100 µM each time. Moreover, the TGI with OVCAR-5 ovarian, with SF-268 CNS, in the assay on SK-OV-3 ovarian and with U251 CNS was > 100 µM throughout.

Regarding `COc1ccc(-c2cc(-c3ccc(Cl)cc3)nc(NCCCCNc3ccnc4cc(Cl)ccc34)n2)cc1`, the GI50 is 10.6 µM in the assay with CAKI-1 renal; 1.5 µM in the assay on HCT-116 colon; 1.69 µM in the assay on HOP-62 NSCLC; 14.6 µM in the assay with HS 578T breast; 1.7 µM in the assay with LOX IMVI melanoma; 1.6 µM in the assay with NCI/ADR-RES ovarian. In addition, the GI50 was 15.4 µM with OVCAR-5 ovarian, 2.39 µM in the assay with SF-268 CNS, 13 µM in the assay with SK-OV-3 ovarian and 11 µM in the assay with U251 CNS. Moreover, the TGI amounted to 22.6 µM in the assay with CAKI-1 renal; 2.92 µM in the assay with HCT-116 colon; 3.44 µM with HOP-62 NSCLC; 38.9 µM in the assay with HS 578T breast; 3.18 µM in the assay on LOX IMVI melanoma; 3.37 µM in the assay on NCI/ADR-RES ovarian. Moreover, the TGI was determined as 29.5 µM in the assay with OVCAR-5 ovarian, 6.31 µM with SF-268 CNS, 27.3 µM in the assay with SK-OV-3 ovarian and 23.8 µM with U251 CNS.

As for `O=C(Nc1cc(F)c(F)cc1C(=O)O)c1ccc(-n2ccnc2)nn1`, the GI50 in the assay on CAKI-1 renal, in the assay on HCT-116 colon, in the assay on HOP-62 NSCLC, in the assay with HS 578T breast, in the assay on LOX IMVI melanoma and in the assay with NCI/ADR-RES ovarian was > 100 µM each time. The GI50 with OVCAR-5 ovarian, with SF-268 CNS, in the assay with SK-OV-3 ovarian and with U251 CNS was > 100 µM each time. The TGI in the assay with CAKI-1 renal, in the assay with HCT-116 colon, with HOP-62 NSCLC, in the assay with HS 578T breast, in the assay on LOX IMVI melanoma and in the assay with NCI/ADR-RES ovarian was > 100 µM throughout. Besides, the TGI in the assay on OVCAR-5 ovarian, in the assay on SF-268 CNS, with SK-OV-3 ovarian and in the assay with U251 CNS was > 100 µM each time.

Turning to `CCN(CC)CCN1c2nc3ccccc3cc2Sc2cc3ccccc3nc21`, the GI50 in the assay with CAKI-1 renal is 1.8 µM; with HCT-116 colon, 1.4 µM; in the assay on HOP-62 NSCLC, 1.42 µM; in the assay with HS 578T breast, 1.73 µM; in the assay with LOX IMVI melanoma it was 1.57 µM; in the assay on NCI/ADR-RES ovarian, 2.5 µM. Also, the GI50 was 1.65 µM with OVCAR-5 ovarian, 3.34 µM in the assay on SF-268 CNS, 3.5 µM in the assay with SK-OV-3 ovarian and 1.95 µM in the assay on U251 CNS. Further, the TGI worked out at 6.11 µM with CAKI-1 renal; 2.78 µM in the assay on HCT-116 colon; 3.06 µM with HOP-62 NSCLC; 4.61 µM in the assay with HS 578T breast; 3.03 µM with LOX IMVI melanoma; 7.83 µM with NCI/ADR-RES ovarian. Moreover, the TGI in the assay with OVCAR-5 ovarian is 4.55 µM; in the assay on SF-268 CNS it was 13 µM; in the assay on SK-OV-3 ovarian it was 12.9 µM; in the assay on U251 CNS, 4.48 µM.

For `O=C(NCCOCCOCCOCCNC(=O)c1cc2c(o1)C(=O)c1ccccc1C2=O)NC12CC3CC(CC(C3)C1)C2`, the GI50 was 2.37 µM with CAKI-1 renal; 2.4 µM in the assay with HCT-116 colon; 2.03 µM with HOP-62 NSCLC; 2.18 µM with HS 578T breast; 0.843 µM with LOX IMVI melanoma; 2.96 µM with NCI/ADR-RES ovarian. In addition, the GI50 in the assay on OVCAR-5 ovarian is 1.83 µM; with SF-268 CNS it was 2.29 µM; with SK-OV-3 ovarian, 2.84 µM; with U251 CNS, 2.04 µM. For the same molecule, the TGI was determined as 11.5 µM in the assay on CAKI-1 renal; 8.95 µM with HCT-116 colon; 3.53 µM in the assay on HOP-62 NSCLC; 6.85 µM in the assay on HS 578T breast; 3.16 µM in the assay with LOX IMVI melanoma; 10.1 µM in the assay on NCI/ADR-RES ovarian. Also, the TGI in the assay with OVCAR-5 ovarian was 3.28 µM; in the assay on SF-268 CNS, 6.22 µM; in the assay with SK-OV-3 ovarian it was 7.43 µM; with U251 CNS it was 5 µM.

For `COc1ccc(C(=O)c2cc3c(N)c(C(=O)Nc4cccc(Br)c4C)sc3nc2C)cc1`, the GI50 is 0.0562 µM with CAKI-1 renal; 0.038 µM with HCT-116 colon; 0.0729 µM with HOP-62 NSCLC; 0.082 µM in the assay on HS 578T breast; 0.0615 µM with LOX IMVI melanoma; 0.0402 µM with NCI/ADR-RES ovarian. Also, the GI50 is 0.187 µM in the assay with OVCAR-5 ovarian, 0.173 µM with SF-268 CNS, 0.102 µM in the assay with SK-OV-3 ovarian and 0.0518 µM in the assay on U251 CNS. Also, the TGI with CAKI-1 renal, in the assay on HOP-62 NSCLC, in the assay with HS 578T breast, in the assay on LOX IMVI melanoma, with NCI/ADR-RES ovarian and with OVCAR-5 ovarian was > 100 µM in each case. The TGI with SF-268 CNS, in the assay with SK-OV-3 ovarian and in the assay with U251 CNS was > 100 µM each time.

These data come from PubChem BioAssay (NCI).
